Data from paper PMC5427921, “PRL3 phosphatase active site is required for binding the putative magnesium transporter CNNM3” (Scientific Reports, 2017).

Target: T1, PRL3 (Homo sapiens, UniProt O75365)
T1 construct: gene PTP4A3; residues 1-169 in pET15b, His6 tag with thrombin site, N-terminal Gly-Ser-His extension left; wild type; expressed in E. coli
Assay: phosphorylation of catalytic Cys104 followed on Phos-tag SDS-PAGE
Type: biochemical
Conditions: no magnesium; 43 µM PRL3, 20 mM HEPES, 100 mM NaCl, 10 mM DTT, pH 7.0; 30 °C and room temperature; estimate from concentration dependence; covalent phosphocysteine formed

T1 sequence (O75365 1-169): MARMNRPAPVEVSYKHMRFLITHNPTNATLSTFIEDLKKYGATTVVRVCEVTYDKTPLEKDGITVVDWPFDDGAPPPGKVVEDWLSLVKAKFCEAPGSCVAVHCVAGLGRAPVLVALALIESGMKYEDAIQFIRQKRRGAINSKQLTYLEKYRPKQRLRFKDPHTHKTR

- Km: > 2000 µM
SMILES: Nc1ncnc2c1ncn2[C@@H]1O[C@H](COP(=O)(O)OP(=O)(O)OP(=O)(O)O)[C@@H](O)[C@H]1O [ATP]
